We go through one compound from patent US5047412A, “Alkene derivatives” (Imperial Chemical Industries PLC, priority 1985, dated 1991).

Assay [1] concerns rabbit aortal strip (TXA2 antagonism). Briefly: rabbit aortal strip model (test (a)). In kind it is cell-based. Conditions: procedure (a), agonist U46619. Here is the method: (a) the rabbit aortal strip model devised by Piper and Vane (Nature, 1969, 223, 29-35) using as agonist a freshly prepared sample of TXA2, generated by addition of arachidonic acid (25 μg) to citrated, platelet rich rabbit plasma (250 μl) and allowing the mixture to aggregate fully over 90 seconds before use; alternatively the TXA2 mimetic agent known as U46619 (described by R. L. Jones et alia, in "Chemistry, Biochemistry and Pharmacological Activity of Prostanoids" edited by S. M. Roberts and F. Scheinmann, at page 211, Pergamon Press, 1979) may be used as the agonist;

Assay [2] concerns the target T1, blood platelet aggregation (TXA2 antagonism) (Homo sapiens, UniProt P21731).
T1 construct: aggregating human, citrated platelet-rich plasma; endogenous in cells; host or cells: human platelets in citrated platelet-rich plasma
T1 sequence (P21731 1-343): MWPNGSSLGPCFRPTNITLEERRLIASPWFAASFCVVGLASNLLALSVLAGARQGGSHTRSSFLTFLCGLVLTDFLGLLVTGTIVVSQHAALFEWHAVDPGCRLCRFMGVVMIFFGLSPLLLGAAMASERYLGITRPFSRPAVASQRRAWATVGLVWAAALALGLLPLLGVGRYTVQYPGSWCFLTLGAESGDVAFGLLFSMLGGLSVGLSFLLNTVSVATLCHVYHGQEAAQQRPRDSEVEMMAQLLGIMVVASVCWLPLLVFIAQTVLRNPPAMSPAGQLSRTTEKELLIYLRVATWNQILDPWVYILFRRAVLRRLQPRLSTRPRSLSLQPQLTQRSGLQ
The assay can be described thus: blood platelet aggregation test (test (b)). Conditions: procedure (b), human citrated platelet-rich plasma, U46619. It is filed as cell-based. The source says:
(b) a blood platelet aggregation test based on that described by Born (Nature, 1962, 194, 927-929) and involving:
(i) aggregating human, citrated platelet-rich plasma by addition of the TXA2 mimetic agent U46619 so that a dose-response curve is generated;
(ii) generating a dose-response curve for U46619 stimulated platelet aggregation in the presence of increasing amounts of test compound (generally in the range, 10^-5 M to 10^-10 M); and
(iii) calculating a Kb value indicating potency of TXA2 antagonism for the test compound, averaged over several concentrations, from the calculated 50% response value for U46619 aggregation in the presence and absence of test compound; and […]

Take `O=C(O)CC/C=C\C[C@@H]1CO[C@H](/C=C/c2ccccc2)O[C@@H]1c1ccccc1O` (relative stereo) [Example 1, 4(Z)-6-([2,4,5-cis]-4-o-hydroxyphenyl-2(E)-styryl-1,3-dioxan-5-yl)hexenoicacid]: in assay [1], the pA2 (as a rule, the negative logarithm of the molar antagonist concentration that doubles the agonist concentration needed for the same response) was determined as 8.9. In addition, the Kb (commonly the affinity of an antagonist, worked out from how it opposes an agonist) in assay [2] stood at 12 nM.
